Source: US20160031927A1 (ASAVI, LLC, priority 2013, published 2016)
Read-outs that look alike come from different tables or passages of the source.

What was measured:
[1] = system: subgenomic RNA-replicon HCV (genotype 2a); test: Antiviral activity in Huh7 cells with subgenomic HCV RNA-replicon, ELISA on viral cor-antigen (genotype 2a); format: cell-based
Experimental: (§1) Antiviral activity (EC50) of nucleoside inhibitors of HCV RNA-polymerase NS5B of the general formula 1, 2 and 3 (further—test compounds) was determined in the human hepatoma cell line Huh7, comprising subgenomic RNA-replicon HCV (genotype 1b, 1a and 2a). For quantitative estimation of viral replication was used a version of immune test ELISA on viral cor-antigen in 96-well plate. Cytotoxicity of the compounds was estimated in parallel regime. As a reference substance was used PSI-7977. Cells Huh7 were seeded in 96-well plate (7.5×10^3 cells to each well in 100 μl of culture medium). Solutions of the tested compounds in DMEM medium {DMEM 1×; Source: Cellgro; Catalogue: 10-013-CV} were prepared immediately before use. Eleven serial three fold dilutions with concentrations from 20 nM to […] were prepared. In 4 hours after seeding, serial dilutions of the compounds were added to the cells (100 μl to each well). Final concentration of tested compounds was varied from 10 nM to 0.1 pM, and DMSO—0.5%. If it was necessary, higher concentrations of the test compounds were investigated. Each dilution of the compound was tested on two identical wells. Then the cells were incubated for three days at 37° C./5% CO2 and fixed by addition of acetone/methanol (1:1) mixture in amount of 250 μl/well. In 1 min the cells were washed 3 times with PBS (Phosphate Buffered Saline) solution. Then the cells were blocked by addition of 10% fetal calf serum in PBS solution in amount of 150 μl/well for 1 h at room temperature. After that the cells were incubated with mouse monoclonal antibodies to cor-antigen HCV, clon C7-50 (Source: Affinity BioReagents; Catalogue: MA1-080) (100 μl/well, working dilution—1:500 in 10% fetal calf serum in PBS solution) for 2 h at 37° C. The cells were washed 6 times with PBS/0.05% Tween 20 solution, then, they were incubated for 1 h with goat anti-mouse immunoglobulin antibodies (conjugated with horseradish peroxidase, 100 μl/well, working dilution—1:2500 in 10% fetal calf serum in PBS solution). The cells were washed 6 times with PBS/0.05% Tween 20 solution, once with PBS solution, after that substrate (1 tablet of o-phenylenediamine (oPD)+12 ml citrate/phosphate buffer+5 μl 30% H2O2) in amount of 100 μl/well was added. The plates were kept for 30 min in the dark at room temperature. The reaction was arrested by the adding 2N H2SO4 in amount of 100 μl/well, and optical density (at wavelength 490 nm) was measured by means of multiscan plate reader Victor3 V 1420 (Perkin Elmer). IC50 values (concentration of test compound, lowering the level of virus RNA-replicon by 50%) for every tested compound were calculated using XLfit 4 program.

[2] = system: subgenomic RNA-replicon HCV (genotype 1b); test: Antiviral activity in Huh7 cells with subgenomic HCV RNA-replicon, ELISA on viral cor-antigen (genotype 1b); format: cell-based
Experimental: as §1

[3] = system: subgenomic RNA-replicon HCV (genotype 1a); test: Antiviral activity in Huh7 cells with subgenomic HCV RNA-replicon, ELISA on viral cor-antigen (genotype 1a); format: cell-based
Experimental: as §1

[4] = Cytotoxicity determination, ATPLite kit; format: cell-based, human; conditions: human; Huh7 cells, genotype 1b, 10% FBS
Experimental: (§2) Cytotoxicity of the test compounds (CC50) was investigated in experiments on the human hepatoma cell line Huh7. Metabolic activity of cells was determined using ATPLite kit (Perkin Elmer, Boston, USA) in accordance with manufacturer instructions. Cytotoxic action was estimated by seeding the cells into black microplate with transparent bottom (96 wells, 10^4 cells to each well). Three independent repeats were used for each test compound. The tested compounds were added in 18 h, after that the cells were incubated together with the compounds for 96 h. Each well was washed two times with phosphate buffered saline (0.2 ml/well) and then the cells were lysed by adding cell buffer (50 μl/well) (all mentioned reagents are included in ATPLite kit). The microplate was incubated for 5 min on a rotating platform at 600 r/min, after that 50 μl of substrate solution (a part of ATPLite kit) was added into each well. The microplate was incubated for additional 5 min on a rotating platform at 600 r/min, kept for 10 min in the dark; after that luminescence was measured using TopCount NXT instrument (Packard, Perkin Elmer). CC50 Value corresponding to concentration of tested compound at which 50% of cells were ruined was used as quantitative characteristic for cytotoxicity estimation. Calculation of CC50 value: for calculation of inhibition effectiveness (% Inh) the following equation was used: % Inh=[(L^pos−L^ex)/L^pos−L^neg)]*100%, where L^pos—positive control, luminescence in the wells with cells without compounds; L^neg—negative control, luminescence in the wells with medium without cells; L^ex—luminescence in wells with a compound of definite concentration. Then, CC50 values were calculated using XLfit 4 program.

[5] = system: human hepatoma cell line Huh7; test: Cytotoxicity determination, ATPLite kit; format: cell-based; conditions: Huh7 cells, genotype 1b, 10% FBS
Experimental: as §2

[6] = system: viral hepatitis C; conditions: together with Daclatasvir; previously untreated patients; without interferon and Ribavirin; intermediate data; cited from earlier work
[7] = Hepatitis C virus, Huh-7, Huh7 replicon, genotype 2a, 10% FBS, read-out: EC50, HCV genotype 2a
[8] = Hepatitis C virus, Huh-7, read-out: EC50, HCV genotype 1b
[9] = Hepatitis C virus, Huh-7, Huh7 replicon, genotype 1a, 10% FBS, read-out: EC50, HCV genotype 1a
[10] = Huh7 replicon, genotype 2a, 10% FBS, read-out: EC50, HCV genotype 2a
[11] = Huh7 replicon, genotype 1b, 10% FBS, read-out: EC50, HCV genotype 1b
[12] = Huh7 replicon, genotype 1a, 10% FBS, read-out: EC50, HCV genotype 1a

CC(C)OC(=O)[C@H](C)NP(=O)(OC[C@H]1O[C@@H](n2ccc(NC(=O)CN(C)C)nc2=O)C(F)(F)[C@@H]1O)Oc1ccccc1 (stereo partly drawn) [1.1.2(1), iso-propyl (S)-2-({(2R,3R,5R)-5-[4-(2-dimethylamino-acetylamino)-2-oxo-2H-pyrimidin-1-yl]-4,4-difluoro-3-hydroxy-tetrahydro-furan-2-ylmethoxy]-phenoxy-phosphorylamino}-propionate]
EC50 [1, 7]: 116 nM
EC50 [2, 8]: 35 nM
EC50 [3, 9]: 106 nM
CC50 at 96 h [4]: > 10000 nM

CC(=O)O[C@@H]1[C@@H](COP(=O)(N[C@@H](C)C(=O)OC(C)C)Oc2ccccc2)OC(n2ccc(N)nc2=O)C1(F)F (stereo partly drawn) [compound 3, (S)-iso-propyl 2-((((2R,3R)-3-acetoxy-5-(4-amino-2-oxopyrimidin-1(2H)-yl)-4,4-difluoro-tetrahydrofuran-2-yl)methoxy)(phenoxy)phosphorylamino)propanoate]
EC50 [1, 7]: 61 nM
EC50 [2, 8]: 15.7 nM
EC50 [3, 9]: 141 nM
CC50 at 96 h [4]: > 10000 nM

CC(C)OC(=O)[C@H](C)NP(=O)(OC[C@H]1OC(n2ccc(N)nc2=O)C(F)(F)[C@@H]1O)Oc1ccccc1 (stereo partly drawn) [compound 2, (S)-iso-propyl 2-((((2R,3R)-5-(4-aminooxopyrimidin-1(2H)-yl)-3-hydroxy-2-4,4-difluoro-tetrahydrofuran-2-yl)methoxy)(phenoxy)phosphorylamino)propanoate]
EC50 [1, 10]: 57.2 nM
EC50 [2, 11]: 13.9 nM
EC50 [3, 12]: 114 nM
CC50 [5]: > 10000 nM

CC(C)OC(=O)[C@H](C)N[P@](=O)(OC[C@H]1O[C@@H](n2ccc(=O)[nH]c2=O)[C@](C)(F)[C@@H]1O)Oc1ccccc1 [PSI-7977, iso-propyl (S)-2-{(S)-[(2R,3R,4R,5R)-5-(2,4-dioxo-3,4-dihydro-2H-pyrimidin-1-yl)-4-fluoro-3-hydroxy-4-methyl-tetrahydro-furan-2-ylmethoxy]-phenoxy-phosphorylamino}-propanoate, reference compound]
EC50 [1, 10]: 88.4 nM
EC50 [2, 11]: 91.8 nM
EC50 [3, 12]: 292 nM
CC50 [5]: > 10000 nM
positive result in patients [6]: 100%

CC(C)OC(=O)[C@H](C)NP(=O)(OC[C@H]1O[C@@H](n2ccc(NC(=O)[C@H](NC(=O)OC(C)(C)C)C(C)C)nc2=O)C(F)(F)[C@@H]1O)Oc1ccccc1 (some centres unmarked) [1.1.2(2)]
EC50 [1, 7]: 78.9 nM
EC50 [2, 8]: 60.6 nM
EC50 [3, 9]: 95.6 nM
CC50 at 96 h [4]: > 10000 nM

CC(C)OC(=O)[C@H](C)NP(=O)(OC[C@H]1OC(n2ccc(NC(=O)[C@@H]3CCCN3C)nc2=O)C(F)(F)[C@@H]1O)Oc1ccc(Cl)cc1 (some centres unmarked) [1.1.2(6)]
EC50 [1, 7]: 79.3 nM
EC50 [2, 8]: 14.4 nM
EC50 [3, 9]: 124 nM
CC50 at 96 h [4]: > 10000 nM

CC(C)OC(=O)C(C)NP(=O)(OCC1OC(n2ccc(NC(=O)C(NC(=O)OC(C)(C)C)C(C)C)nc2=O)C(F)(F)C1O)Oc1ccccc1 (centres unmarked) [1.1.2(3)]
EC50 ([1]; Hepatitis C virus, Huh-7, read-out: EC50, HCV genotype 2a): 69.4 nM
EC50 [2, 8]: 60.9 nM
EC50 ([3]; Hepatitis C virus, Huh-7, read-out: EC50, HCV genotype 1a): 182 nM
CC50 at 96 h [4]: > 10000 nM
